According to patent publication US9115093B2, “Substituted bicyclic dihydropyrimidinones and their use as inhibitors of neutrophil elastase activity” (Boehringer Ingelheim International GmbH, priority 2013, dated 2015):

What follows are molecules tested against T1, neutrophil elastase (Homo sapiens, UniProt P08246) (assay: Human Neutrophil Elastase Assay). Conditions: substrate MeOSuc-Ala-Ala-Pro-Val-AMC, pH 7.5, room temperature.
T1 sequence (P08246 30-247 limits assumed): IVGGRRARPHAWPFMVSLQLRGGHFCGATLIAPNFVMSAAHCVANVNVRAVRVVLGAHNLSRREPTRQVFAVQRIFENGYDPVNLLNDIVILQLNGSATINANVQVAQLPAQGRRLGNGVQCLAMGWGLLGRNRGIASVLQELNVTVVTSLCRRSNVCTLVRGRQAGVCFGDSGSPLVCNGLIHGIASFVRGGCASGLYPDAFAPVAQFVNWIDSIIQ
Assay type: biochemical
Design: purchased Calbiochem 324681
Method in brief: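 Readout: AMC fluorescence (ex 380, em 460 nm) after 60 min room-temperature reaction with 250 nM MeOSuc-AAPV-AMC, following 15 min compound–enzyme preincubation. Buffer: Tris/NaCl pH 7.5, 0.01% BSA.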

Compound	IC50 [nM]
CC(C)(O)CCNC(=O)N1C(=O)N(c2cccc(C(F)(F)F)c2)C2=C(C(=O)CCC2)C1c1ccc(C#N)cc1 (stereo not drawn) [Example 70.16]	1.1
CCN1C(=O)N(c2cccc(C(F)(F)F)c2)C2=C(C(=O)CCC2)C1c1ccc(C#N)cc1S(C)(=O)=O (stereo not drawn) [Example 58, 4-(3-Ethyl-2,5-dioxo-1-(3-(trifluoromethyl)phenyl)-1,2,3,4,5,6,7,8-octahydroquinazolin-4-yl)-3-(methylsulfonyl)benzonitrile]	1.3
N#Cc1ccc(C2C3=C(CCCC3=O)N(c3cccc(C(F)(F)F)c3)C(=O)N2S(=O)(=O)C=Cc2ccccc2)cc1 (stereo not drawn) [Example 44.12]	106
N#Cc1ccc(C2C3=C(CCCC3=O)N(c3cccc(C(F)(F)F)c3)C(=O)N2C(=O)NCC2CCOC2)cc1 (stereo not drawn) [Example 39.9]	< 1
N#Cc1ccc(C2NC(=O)N(c3cccc(C(F)(F)F)c3)C3=C2C(=O)CCC3)c(F)c1 (stereo not drawn) [Example 52, 4-(2,5-Dioxo-1-(3-(trifluoromethyl)phenyl)-1,2,3,4,5,6,7,8-octahydroquinazolin-4-yl)-3-fluorobenzonitrile]	26.7
CS(=O)(=O)c1ccc(CNC(=O)N2C(=O)N(c3cccc(C(F)(F)F)c3)C3=C(C(=O)CCC3)C2c2ccc(C#N)cc2)nc1 (stereo not drawn) [Example 39.20]	< 1
N#Cc1ccc(C2C3=C(CCCC3=O)N(c3cccc(C(F)(F)F)c3)C(=O)N2CC(=O)NCc2ccco2)cc1 (stereo not drawn) [Example 36.15]	17.5
Cc1nc2c(o1)CN(C(=O)CN1C(=O)N(c3cccc(C(F)(F)F)c3)C3=C(C(=O)CCC3)C1c1ccc(C#N)cc1)CC2 (stereo not drawn) [Example 36.65]	16.2
CC1(O)CCN(C(=O)CN2C(=O)N(c3cccc(C(F)(F)F)c3)C3=C(C(=O)CCC3)C2c2ccc(C#N)cc2)C1 (stereo not drawn) [Example 36.25]	1.7
CS(=O)(=O)N1CCN(C(=O)CN2C(=O)N(c3cccc(C(F)(F)F)c3)C3=C(C(=O)CCC3)C2c2ccc(C#N)cc2)CC1 (stereo not drawn) [Example 36.75]	2.4
CN(C)CCCN(C)C(=O)CN1C(=O)N(c2cccc(C(F)(F)F)c2)C2=C(C(=O)CCC2)C1c1ccc(C#N)cc1 (stereo not drawn) [Example 36.43]	12.1
CC(C)(C)COC(=O)N1C(=O)N(c2cccc(C(F)(F)F)c2)C2=C(C(=O)CCC2)C1c1ccc(C#N)cc1 (stereo not drawn) [Example 42, Neopentyl 4-(4-Cyanophenyl)-2,5-dioxo-1-(3-(trifluoromethyl)phenyl)-1,2,5,6,7,8-hexahydroquinazoline-3(4H)-carboxylate]	88.7
N#Cc1ccc(C2C3=C(CCCC3=O)N(c3cccc(C(F)(F)F)c3)C(=O)N2CC(=O)N2CC3CC3C2)cc1 (stereo not drawn) [Example 36.6]	1.2
COC(=O)N1C(=O)N(c2cccc(C(F)(F)F)c2)C2=C(C(=O)CCC2)C1c1ccc(C#N)cc1 (stereo not drawn) [Example 40, Methyl 4-(4-Cyanophenyl)-2,5-dioxo-1-(3-(trifluoromethyl)phenyl)-1,2,5,6,7,8-hexahydroquinazoline-3(4H)-carboxylate]	9
N#Cc1ccc(C2C3=C(CCCC3=O)N(c3cccc(C(F)(F)F)c3)C(=O)N2C(=O)NCC2CCC(=O)N2)cc1 (stereo not drawn) [Example 39.17]	< 1
Cn1ccc(S(=O)(=O)N2C(=O)N(c3cccc(C(F)(F)F)c3)C3=C(C(=O)CCC3)C2c2ccc(C#N)cc2)n1 (stereo not drawn) [Example 44.7]	15.9
N#Cc1ccc([C@H]2C3=C(CCCC3=O)N(c3cccc(C(F)(F)F)c3)C(=O)N2CC(=O)O)cc1 [Example 32B, (S)-2-(4-(4-Cyanophenyl)-2,5-dioxo-1-(3-(trifluoromethyl)phenyl)-1,2,5,6,7,8-hexahydroquinazolin-3(4H)-yl)acetic acid]	1410
N#Cc1ccc(C2NC(=O)N(c3cccc(C(F)(F)F)c3)C3=C2C(=O)CCC3)cn1 (stereo not drawn) [Example 16, 5-(2,5-dioxo-1-(3-(trifluoromethyl)phenyl)-1,2,3,4,5,6,7,8-octahydroquinazolin-4-yl)-picolinonitrile]	54.1
